This is an account of results in ChEMBL document CHEMBL1208756, “LuxR-dependent quorum sensing: computer aided discovery of new inhibitors structurally unrelated to N-acylhomoserine lactones” (Bioorg Med Chem Lett, 2010).

The target of assay [1] is T1, Transcriptional activator protein LuxR (Aliivibrio fischeri) (UniProt P12746).
T1 sequence (whole entry): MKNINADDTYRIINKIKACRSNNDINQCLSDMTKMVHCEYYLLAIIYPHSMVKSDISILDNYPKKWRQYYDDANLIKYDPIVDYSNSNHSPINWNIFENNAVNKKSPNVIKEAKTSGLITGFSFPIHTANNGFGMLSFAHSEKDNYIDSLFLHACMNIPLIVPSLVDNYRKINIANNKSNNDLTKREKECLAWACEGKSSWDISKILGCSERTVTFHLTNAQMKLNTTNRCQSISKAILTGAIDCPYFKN
In words: Induction of LuxR-dependent quorum sensing in Vibrio fischeri assessed as induction of bioluminescence intensity up to 200 uM.

Assay [2] deals with T2, Transcriptional activator protein LuxR (Aliivibrio fischeri, UniProt P12746).
T2 sequence (P12746 whole entry): T1 sequence (whole entry)
In words: Inhibition of LuxR-dependent quorum sensing in Vibrio fischeri assessed as reduction of 3-oxo-C6-HSL-induced bioluminescence intensity.

The target in assay [3] is T1, Transcriptional activator protein LuxR (Aliivibrio fischeri). In words: Inhibition of LuxR-dependent quorum sensing in Vibrio fischeri assessed as reduction of 3-oxo-C6-HSL-induced bioluminescence intensity at 20 uM.
For assay [4] the target is unchanged. In words: Inhibition of LuxR-dependent quorum sensing in Vibrio fischeri assessed as reduction of 3-oxo-C6-HSL-induced bioluminescence intensity at 40 uM.

Broadly, the IC50 is the point on the concentration scale where inhibition reaches its midpoint. One may read the inhibition as the drop in the measured response relative to a control, in per cent.

Activity calls are given as the source filed them. The rule behind the calls is not given here.

As to `Clc1ccc(C(c2ccc(Cl)cc2)[n+]2ccn(CC(OCc3ccc(Cl)cc3Cl)c3ccc(Cl)cc3Cl)c2)cc1` (centres undefined), the result in assay [1] was inactive.
Consider `Clc1ccc(C(c2ccc(Cl)cc2)n2cc[n+](CC(OCc3ccc(Cl)cc3Cl)c3ccc(Cl)cc3Cl)c2)cc1` (centres undefined) [CALMIDAZOLIUM CHLORIDE], for which the IC50 in assay [2] is 7 µM.
Consider `CC(NCCC(c1ccccc1)c1ccccc1)c1ccccc1` (centres undefined) [FENDILINE], for which the IC50 in assay [2] turned out to be 91 µM. Further, in assay [1], the result was inactive.
For `CN1CCC(=C2c3ccccc3Sc3ccccc32)CC1` [PIMETHIXENE] the same measures were 56 µM and “inactive”.
For `CN[C@H]1CC[C@@H](c2ccc(Cl)c(Cl)c2)c2ccccc21` [SERTRALINE] the same measures were 27 µM and “inactive”.
On to `CC/C(=C(\c1ccccc1)c1ccc(OCCN(C)C)cc1)c1ccccc1` [TAMOXIFEN], for which the IC50 in assay [2] came to 40 µM. Besides, the inhibition in assay [3] came out at 73.6%; in assay [4], 53%. In assay [1], the result was inactive.
For `CC(C)(C)c1ccc(C(O)CCCN2CCC(C(O)(c3ccccc3)c3ccccc3)CC2)cc1` (centres undefined) [TERFENADINE], in assay [2], the IC50 came to 92 µM. Also, in assay [1], the result was inactive.
